# Like-named read-outs stand apart in the source and are kept apart here.
# Assays:
# DENV2 [1] = assay: microbe, parasite or virus in culture; type: cell-based, dengue virus; details: for SI (selectivity index, CC50/EC50): CC50 Huh-7 / EC50 DENV; for EC50: DENV2, DENV replication, read-out: EC50 (concentration resulting in a 50% inhibition in virus production)
# Procedure: Anti-DENV activities were determined by firefly luciferase activity.
# Huh-7-DV-Fluc cells were seeded in 24-well plates at a density of 2 × 10^4 cells per well, and treated with the 3-arylquinoxaline compounds at two concentrations (1 and 10 μM) or 0.1% DMSO as control. After three days of incubation, the luciferase activity assay was performed using the Bright-Glo Luciferase assay system (Promega, Madison, WI, USA) according to the manufacturer’s instructions.
# Huh-7 cells [2] = assay: Cytotoxicity assay (XTT method); type: cell-based, Human; details: Huh-7 cells
# Procedure: (§1) For cytotoxicity tests, run in parallel with antiviral assays, plates at an initial density of 5 × 10^3 cells/well were treated with or without serial dilutions of test compounds. Cell viability was determined after 72 h at 37 °C in a humidified CO2 (5%) atmosphere by the (2,3-bis[2-methyloxy-4-nitro-5-sulfophenyl]-2H-tetrazolium-5-carboxanilide) (XTT) method.
# [3] = Cytotoxicity assay (XTT method); type: cell-based, Human; details: human, mean ± SD; for CC50 at 72 h: uninfected Huh-7 cells, read-out: CC50 (concentration causing a 50% growth inhibition of uninfected Huh-7 cells)
# Procedure: as §1
# DENV2 [4] = system: DENV2; design: method as in PMID 29031073; details: cited from earlier work
# DENV-2 = system: DENV-2; design: method as in PMID 29031073; details: cited from earlier work; for EC50: anti-DENV-2 activity
# Huh-7 cells [5] = system: Huh-7 cells; design: method as in PMID 29031073; details: cited from earlier work
# DENV = system: DENV; design: method as in PMID 27750144; details: against DENV; cited from earlier work
# DENV2 [6] = details: DENV2 in VERO-B cells; cited from earlier work
smiles,measurement,setting,value
"COc1ccc(C(=O)c2nc3ccccc3nc2-c2ccccc2)cc1 [Compound 21b, (4-Methoxyphenyl)(3-phenylquinoxalin-2-yl)methanone]",melting point,,130 to 132.4 °C
same,anti-DENV activity in words,"DENV2 [1]; 10 μM, >32% inhibition of DENV-2 at 10 μM considered as active",highly active
same,DENV2 % Inhibition at 10 μM,"DENV2 [1]; 10 μM, Huh-7-DV-Fluc cells, three days, mean ± SD",51.85 ± 3.52%
same,"SI (selectivity index, CC50/EC50)",DENV2 [1],>61.54
same,inhibition at 1 µM,"DENV2 [1]; Dengue virus, DENV2, 72 h, 1 μM, Huh-7-DV-Fluc cells, three days, mean ± SD",42.8 ± 5.13%
same,inhibition at 10 µM,"DENV2 [1]; Dengue virus, DENV2, 72 h, 10 μM, Huh-7-DV-Fluc cells, three days, mean ± SD",51%
same,EC50,"DENV2 [1]; Dengue virus, mean ± SD",3.25 ± 0.89 µM
same,cytotoxicity in words,Huh-7 cells [2],non-cytotoxic
same,"viability at 72 h, 20 µM","[3]; Huh-7 cells, 20 μM, 72 h, XTT, read-out: Huh-7 Cell % viability at 20 μM",106 ± 3.12%
same,"viability at 72 h, 200 µM","[3]; Huh-7 cells, 200 μM, 72 h, XTT, read-out: Huh-7 Cell % viability at 200 μM",95.1 ± 4.32%
same,CC50 at 72 h,[3],> 200 µM
NC(=O)c1ncn([C@@H]2O[C@H](CO)[C@@H](O)[C@H]2O)n1 [Ribavirin],DENV2 % Inhibition at 1 μM,DENV2 [4]; 1 μM,10.14 ± 1.98%
same,DENV2 % Inhibition at 10 μM,DENV2 [4]; 10 μM,32.53 ± 2.30%
same,EC50,DENV-2,12.6 µM
same,"SI (selectivity index, CC50/EC50)",DENV2 [1],4.47
same,EC50,"DENV2 [1]; Dengue virus, mean ± SD",12.6 ± 1.17 µM
same,Huh-7 Cell % viability at 20 μM,Huh-7 cells [5]; 20 μM,71.37 ± 1.31%
same,Huh-7 Cell % viability at 200 μM,Huh-7 cells [5]; 200 μM,14.36 ± 2.14%
same,CC50 at 72 h,[3],56.3 ± 2.32 µM
"Cc1ccc(Cc2nc(Cc3ccc(C)cc3-c3cc(C)n[nH]3)c3ccccc3n2)cc1 [Compound 2, 4-[4-methyl-2-(3-methyl-1H-pyrazol-5-yl)benzyl)-2-(4-methylbenzyl)quinazoline]",EC50,DENV,2.6 µM
"O=C(NCc1ccc(-c2ccncc2)cc1)c1nccnc1C(=O)Nc1ccc(F)cc1 [Compound 1, N^2-(4-fluorophenyl)-N^3-[4-(pyridin-4-yl)benzyl]pyrazine-2,3-dicarboxamide]",EC50,DENV2 [6],0.93 µM
"COc1ccc(-c2cc(-c3ccc4cc(F)ccc4n3)n(-c3ccc(S(N)(=O)=O)cc3)n2)cc1 [Compound 5, 4-[5-(6-fluoroquinolin-2-yl)-3-(4-methoxyphenyl)-1H-pyrazol-1-yl]benzenesulfonamide]",EC50,DENV-2,0.81 µM
same,fold more active anti-DENV-2 activity than ribavirin,DENV-2,approximately 10 fold
